pIC50: −log10 of the molar value.
What was measured:
Assay type in all cases: biochemical
[1] = molecular target: T1, PDGFr (mouse PDGF-β receptor tyrosine kinase) (Mus musculus, UniProt P05622); assay: PDGFr tyrosine kinase assay, 32P incorporation into glutamate-tyrosine copolymer; settings: 50 μM ATP
T1 construct: PCR primers are designed to amplify a fragment of DNA that codes for the intracellular tyrosine kinase domain; made in house; host or cells: Sf9 insect cells (baculovirus), cell lysate
T1 sequence (P05622 599-961 limits assumed): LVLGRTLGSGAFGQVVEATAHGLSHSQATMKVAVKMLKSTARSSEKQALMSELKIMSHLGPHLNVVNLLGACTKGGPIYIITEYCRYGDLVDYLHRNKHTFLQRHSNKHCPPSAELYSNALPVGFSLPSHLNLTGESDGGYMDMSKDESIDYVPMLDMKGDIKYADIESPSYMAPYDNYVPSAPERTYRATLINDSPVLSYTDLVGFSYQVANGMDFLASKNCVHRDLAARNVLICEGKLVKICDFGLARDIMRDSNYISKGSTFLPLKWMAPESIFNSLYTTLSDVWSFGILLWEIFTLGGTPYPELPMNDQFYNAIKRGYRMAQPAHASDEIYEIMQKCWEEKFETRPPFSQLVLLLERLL
Procedure: (§1) Platelet Derived Growth Factor Receptor (PDGFr) and Fibroblast Growth Factor Receptor (FGFr). Full length cDNAs for the mouse PDGF-β and human FGF-1 (flg) receptor tyrosine kinases were obtained from J. Escobedo and are prepared as described in J. Biol. Chem., 1991;262:1482-1487. PCR primers are designed to amplify a fragment of DNA that codes for the intracellular tyrosine kinase domain. The fragment is melded into a baculovirus vector, cotransfected with AcMNPV DNA, and the recombinant virus isolated. SF9 insect cells are infected with the virus to overexpress the protein, and the cell lysate is used for the assay.
(§2) PDGFr and FGFr. […] Briefly, to each well is added 82.5 μL of incubation buffer containing 25 mM Hepes (pH 7.0), 150 mM NaCl, 0.1% Triton X-100, 0.2 mM PMSF, 0.2 mM sodium vanadate, 10 mM manganese chloride, and 750 μg/mL of poly (4:1) glutamate-tyrosine followed by 2.5 μL of inhibitor and 5 μL of enzyme lysate (7.5 μg/μL FGFR-TK or 6.0 μg/μL PDGFR-TK) to initiate the reaction. Following a 10 minute incubation at 25° C., 10 μL of [γ^32 P]ATP (0.4 μCi plus 50 μM ATP) is added to each well, and samples are incubated for an additional 10 minutes at 25° C. The reaction is terminated by the addition of 100 μL of 30% trichloroacetic acid (TCA) containing 20 mM sodium pyrophosphate and precipitation of material onto glass fiber filter mats (Wallac). […] Nonspecific activity is defined as radioactivity retained on the filters following incubation of samples with buffer alone; (no enzyme). Specific enzymatic activity is defined as total activity (enzyme plus buffer) minus nonspecific activity.

Protein kinase C (PKC) = Protein kinase C (PKC) assay; settings: rat brain preparation
Procedure: (§3) Other Kinases. c-Src kinase is purified from baculovirus infected insect cell lysates using an antipeptide monoclonal antibody directed against the N-terminal 2-17 amino acids as described previously by Fry, et al., Anticancer Drug Design, 1994;9:331-351. Protein kinase C (PKC.) is obtained as a rat brain preparation from Promega.
Other Kinases. An assay using the intracellular kinase domains of insulin receptor (INSr) is performed as described for the EGF receptor except that 10 mM manganese chloride is included in the reaction. The PKC assay is performed as previously described by Martiny-Baron, et al., J. Biol. Chem., 1993;268:9194-9197.

[2] = molecular target: T2, FGFr (human FGF-1 (flg) receptor tyrosine kinase) (Homo sapiens, UniProt P11362); assay: FGFr tyrosine kinase assay, 32P incorporation into glutamate-tyrosine copolymer; settings: 50 μM ATP; read-out: FGFr IC50
T2 construct: PCR primers are designed to amplify a fragment of DNA that codes for the intracellular tyrosine kinase domain; made in house; host or cells: Sf9 insect cells (baculovirus), cell lysate
T2 sequence (P11362 478-767 limits assumed): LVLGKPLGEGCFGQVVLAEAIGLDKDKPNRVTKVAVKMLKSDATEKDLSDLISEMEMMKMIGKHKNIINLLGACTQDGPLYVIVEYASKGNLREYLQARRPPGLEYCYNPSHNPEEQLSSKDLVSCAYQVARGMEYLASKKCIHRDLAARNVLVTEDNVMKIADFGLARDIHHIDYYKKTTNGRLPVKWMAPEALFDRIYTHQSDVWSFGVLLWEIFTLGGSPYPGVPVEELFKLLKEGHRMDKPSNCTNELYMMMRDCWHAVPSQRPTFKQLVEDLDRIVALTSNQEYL
Procedure: as §1, §2

c-Src = molecular target: T3, c-Src (Homo sapiens, UniProt P12931); assay: c-Src kinase assay, 32P incorporation into polyglutamate-tyrosine; settings: 5 μM ATP
T3 construct: made in house; host or cells: baculovirus infected insect cells
T3 sequence (P12931 whole entry, species assumed): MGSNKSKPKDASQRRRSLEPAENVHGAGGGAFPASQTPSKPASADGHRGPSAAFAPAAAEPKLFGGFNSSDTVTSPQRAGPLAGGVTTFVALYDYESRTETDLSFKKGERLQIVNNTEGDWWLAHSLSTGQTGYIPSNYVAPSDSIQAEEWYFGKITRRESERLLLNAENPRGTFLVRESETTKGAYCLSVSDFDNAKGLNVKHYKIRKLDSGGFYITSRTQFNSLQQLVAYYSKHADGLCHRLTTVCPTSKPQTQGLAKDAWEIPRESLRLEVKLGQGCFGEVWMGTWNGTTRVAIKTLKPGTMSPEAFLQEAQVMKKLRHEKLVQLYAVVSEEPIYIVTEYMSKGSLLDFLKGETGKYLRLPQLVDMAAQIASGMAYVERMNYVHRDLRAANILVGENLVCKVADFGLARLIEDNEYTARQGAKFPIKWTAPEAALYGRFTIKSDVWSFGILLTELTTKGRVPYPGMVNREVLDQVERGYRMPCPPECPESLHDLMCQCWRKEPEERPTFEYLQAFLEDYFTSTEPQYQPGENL
Procedure: as §3
c-Src. The antibody, covalently linked to 0.65-μm latex beads, is added to a suspension of insect cell lysis buffer comprised of 150 mM NaCl, 50 mM Tris pH 7.5, 1 mM DTT, 1% NP-40, 2 mM EGTA, 1 mM sodium vanadate, 1 mM PMSF, 1 μg/mL each of leupeptin, pepstatin, and aprotinin. Insect cell lysate containing the c-Src protein is incubated with these beads for 3 to 4 hours at 4° C. with rotation. At the end of the lysate incubation, the beads are rinsed three times in lysis buffer, resuspended in lysis buffer containing 10% glycerol, and frozen. These latex beads are thawed, rinsed three times in assay buffer which is comprised of 40 mM tris pH 7.5, 5 mM magnesium chloride, and suspended in the same buffer. In a Millipore 96-well plate with a 0.65 μm polyvinylidine membrane bottom are added the reaction components: 10-μL c-Src beads, 10 μL of 2.5 mg/mL polyglutamate-tyrosine substrate, 5 μM ATP containing 0.2 μCi labeled ^32 P-ATP, 5 μL DMSO containing inhibitors or as a solvent control, and buffer to make the final volume 125 μL. The reaction is started at room temperature by addition of the ATP and quenched 10 minutes later by the addition of 125 μL of 30% TCA, 0.1 M sodium pyrophosphate for 15 minutes on ice. The plate is then filtered and the wells washed with two 250-μL aliquots of 15% TCA, 0.1 M pyrophosphate. The filters are punched, counted in a liquid scintillation counter, and the data examined for inhibitory activity in comparison to a known inhibitor such as erbstatin. The method is described more fully in J. Med. Chem., 1994;37:598-609.

[3] = molecular target: T4, EGFr (Human EGF receptor tyrosine kinase) (Homo sapiens, UniProt P00533); assay: EGFr tyrosine kinase assay; settings: 10 μM ATP
T4 construct: Human EGF receptor tyrosine kinase is isolated from A431 human epidermoid carcinoma cells; endogenous in cells; host or cells: A431 human epidermoid carcinoma cells (detergent lysate, Q Sepharose fractions)
T4 sequence (P00533 25-1210): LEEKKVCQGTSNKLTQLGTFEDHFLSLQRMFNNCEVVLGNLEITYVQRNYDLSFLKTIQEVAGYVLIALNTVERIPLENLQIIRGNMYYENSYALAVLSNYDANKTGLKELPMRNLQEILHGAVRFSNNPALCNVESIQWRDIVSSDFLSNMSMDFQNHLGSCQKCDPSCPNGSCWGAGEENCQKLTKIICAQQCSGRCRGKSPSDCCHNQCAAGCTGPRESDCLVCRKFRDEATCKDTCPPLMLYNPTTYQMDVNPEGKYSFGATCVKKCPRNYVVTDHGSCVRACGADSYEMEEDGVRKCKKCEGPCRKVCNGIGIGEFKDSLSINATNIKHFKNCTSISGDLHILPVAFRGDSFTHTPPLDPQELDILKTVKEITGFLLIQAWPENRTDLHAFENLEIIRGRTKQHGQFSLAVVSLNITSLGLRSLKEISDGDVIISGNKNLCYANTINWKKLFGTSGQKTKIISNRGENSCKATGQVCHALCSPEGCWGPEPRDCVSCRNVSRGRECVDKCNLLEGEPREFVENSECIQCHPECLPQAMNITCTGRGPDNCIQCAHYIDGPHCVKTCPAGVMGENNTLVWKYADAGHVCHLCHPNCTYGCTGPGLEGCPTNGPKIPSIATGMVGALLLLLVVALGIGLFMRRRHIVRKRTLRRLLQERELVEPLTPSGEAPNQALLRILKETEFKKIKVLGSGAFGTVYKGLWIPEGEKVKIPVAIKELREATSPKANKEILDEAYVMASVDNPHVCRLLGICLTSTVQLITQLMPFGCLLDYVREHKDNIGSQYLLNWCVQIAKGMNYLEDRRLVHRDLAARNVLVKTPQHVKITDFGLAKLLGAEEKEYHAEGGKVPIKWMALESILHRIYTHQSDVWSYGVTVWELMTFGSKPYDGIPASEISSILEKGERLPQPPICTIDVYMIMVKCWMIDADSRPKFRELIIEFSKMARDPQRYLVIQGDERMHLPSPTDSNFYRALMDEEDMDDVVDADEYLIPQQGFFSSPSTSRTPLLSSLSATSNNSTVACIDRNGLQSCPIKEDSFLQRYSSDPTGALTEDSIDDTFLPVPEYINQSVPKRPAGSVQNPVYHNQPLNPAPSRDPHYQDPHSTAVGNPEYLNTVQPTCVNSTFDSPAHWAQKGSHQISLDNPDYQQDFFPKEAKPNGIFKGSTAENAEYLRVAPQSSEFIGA
Procedure: Epidermal Growth Factor Receptor (EGFr). Human EGF receptor tyrosine kinase is isolated from A431 human epidermoid carcinoma cells by the following method. Cells were grown in roller bottles in 50% Dulbecco's Modified Eagle medium and 50% HAM F-12 nutrient media (Gibco) containing 10% fetal calf serum. Approximately 10^9 cells are lysed in two volumes of buffer containing 20 mM 2-(4N-[2-[…]]piperazin-1-yl)ethanesulfonic acid (Hepes), pH 7.4, 5 mM ethylene glycol bis(2-aminoethyl ether) N,N,N',N'-tetraacetic acid (EGTA), 1% Triton X-100, 10% glycerol, 0.1 mM sodium orthovanadate, 5 mM sodium fluoride, 4 mM pyrophosphate, 4 mM benzamide, 1 mM dithiothreitol (DTT), 80 μg/mL aprotinin, 40 μg/mL leupeptin, and 1 mM phenylmethylsulfonyl fluoride (PMSF). After centrifugation at 25,000×g for 10 minutes, the supernatant is applied to a fast Q sepharose column (Pharmacia) and eluted with a linear gradient from 0.1 M NaCl to 0.4 M NaCl in 50 mM Hepes, 10% glycerol, pH 7.4. Enzyme active fractions are pooled, divided into aliquots, and stored at -100° C.
EGFr. Enzyme assays for IC50 determinations are performed in 96-well filter plates (Millipore MADVN6550). The total volume is 0.1 mL containing 20 mM Hepes, pH 7.4, 50 μM sodium vanadate, 40 mM magnesium chloride, 10 μM ATP containing 0.5 μCi of [^32 P]ATP, 20 μg of polyglutamic acid/tyrosine (Sigma Chemical Co., St. Louis, Mo.), 10 ng of EGF receptor tyrosine kinase and appropriate dilutions of inhibitor. All components except the ATP are added to the well, and the plate is incubated with shaking for 10 minutes at 25° C. The reaction is started by adding [^32 P]ATP, and the plate is incubated at 25° C. for 10 minutes. The reaction is terminated by addition of 0.1 mL of 20% trichloroacetic acid (TCA). The plate is kept at 4° C. for at least 15 minutes to allow the substrate to precipitate. The wells are then washed five times with 0.2 mL of 10% TCA, and ^32 P incorporation is determined with a Wallac beta plate counter.

Structure (SMILES) | pIC50 [1] | pIC50 (Protein kinase C (PKC)) | pIC50 [2] | pIC50 (c-Src) | pIC50 [3]
Cn1c(=O)c(-c2c(Cl)cccc2Cl)cc2cnc(N)cc21 [Example A, 7-amino-3-(2,6-dichlorophenyl)-1-methyl-1H-[1,6]naphthyridin-2-one] | 5.60 | 4.30 | 6.55 | 6.46 | –
COc1ccc(Nc2cc3c(cn2)cc(-c2c(Cl)cccc2Cl)c(=O)n3C)cc1 [Example O, 3-(2,6-dichlorophenyl)-7-[(4-methoxyphenyl)amino]-1-methyl-1H-[1,6]naphthyridin-2-one] | 5.77 | – | 5.92 | 5.77 | –
CNc1cc2c(cn1)cc(-c1c(Cl)cccc1Cl)c(=O)n2C [Example B, 3-(2,6-dichlorophenyl)-1-methyl-7-methylamino-1H-[1,6]naphthyridin-2-one] | 5.44 | – | 6.47 | 6.38 | –
Cn1c(=O)c(-c2c(Cl)cccc2Cl)cc2cnc(NCCCN3CCOCC3)cc21 [Example K, 3-(2,6-dichlorophenyl)-1-methyl-7-[3-(4-morpholino)propylamino]-1H-[1,6]naphthyridin-2-one] | 5.33 | < 4.30 | – | 6.44 | > 4.30
CN1CCN(CCCOc2ccc(Nc3cc4c(cn3)cc(-c3c(Cl)cccc3Cl)c(=O)n4C)cc2)CC1 [Example T, 3-(2,6-dichlorophenyl)-1-methyl-7-[(4-(3-(4-methylpiperazin-1-yl)propoxy)phenyl)amino]-1H-[1,6]naphthyridin-2-one] | 6.43 | – | – | 7.52 | –
Cn1c(=O)c(-c2c(Cl)cccc2Cl)cc2cnc(NCCCn3ccnc3)cc21 [Example L, 3-(2,6-dichlorophenyl)-7-[3-(imidazol-1-yl)propylamino]-1-methyl-1H-[1,6]naphthyridin-2-one] | 5.77 | – | – | 6.27 | –
CN1CCN(CCCCNc2cc3c(cn2)cc(-c2c(Cl)cccc2Cl)c(=O)n3C)CC1 [Example I, 3-(2,6-dichlorophenyl)-1-methyl-7-[4-(4-methylpiperazin-1-yl)butylamino]-1H-[1,6]naphthyridin-2-one] | 6.02 | – | – | 7.40 | –
CN1CCN(c2ccc(Nc3cc4c(cn3)cc(-c3c(Cl)cccc3Cl)c(=O)n4C)cc2)CC1 [Example U, 3-(2,6-dichlorophenyl)-1-methyl-7-[(4-(4-methylpiperazin-1-yl)phenyl)amino]-1H-[1,6]naphthyridin-2-one] | 6.59 | – | – | 7.70 | –
CCN(CC)CCCOc1ccc(Nc2cc3c(cn2)cc(-c2c(Cl)cccc2Cl)c(=O)n3C)cc1 [Example R, 3-(2,6-dichlorophenyl)-7-[(4-(3-(diethylamino)propoxy)phenyl)amino]-1-methyl-1H-[1,6]naphthyridin-2-one] | 6.43 | – | 6.74 | 7.52 | –
Cn1c(=O)c(-c2c(Cl)cccc2Cl)cc2cnc(NCCCCN3CCOCC3)cc21 [Example Q, 3-(2,6-dichlorophenyl)-1-methyl-7-[4-(4-morpholino)butylamino]-1H-[1,6]naphthyridin-2-one] | 5.51 | – | – | 7.30 | –
CN1CCN(CCCCCNc2cc3c(cn2)cc(-c2c(Cl)cccc2Cl)c(=O)n3C)CC1 [Example J, 3-(2,6-dichlorophenyl)-1-methyl-7-[5-(4-methylpiperazin-1-yl)pentylamino]-1H-[1,6]naphthyridin-2-one] | 6.07 | – | – | 7.52 | –
CCN(CC)CCCNc1cc2c(cn1)cc(-c1c(Cl)cccc1Cl)c(=O)n2C [Example E, 3-(2,6-dichlorophenyl)-7-[3-(diethylamino)propylamino]-1-methyl-1H-[1,6]naphthyridin-2-one] | 5.40 | – | 6.66 | 6.52 | –
Cn1c(=O)c(-c2c(Cl)cccc2Cl)cc2cnc(Nc3ccccc3)cc21 [Example M, 3-(2,6-dichlorophenyl)-1-methyl-7-(phenylamino)-1H-[1,6]naphthyridin-2-one] | 6.00 | < 4.30 | 5.89 | 6.10 | > 4.30
CCN(CC)CCCCCNc1cc2c(cn1)cc(-c1c(Cl)cccc1Cl)c(=O)n2C [Example G, 3-(2,6-dichlorophenyl)-7-[5-(diethylamino)pentylamino]-1-methyl-1H-[1,6]naphthyridin-2-one] | 6.16 | – | 7.15 | 7.70 | –
CCN(CC)CCNc1cc2c(cn1)cc(-c1c(Cl)cccc1Cl)c(=O)n2C [Example D, 3-(2,6-dichlorophenyl)-7-[2-(diethylamino)ethylamino]-1-methyl-1H-[1,6]naphthyridin-2-one] | 4.80 | – | 5.43 | 4.89 | –
Cn1c(=O)c(-c2c(Cl)cccc2Cl)cc2cnc(Nc3ccncc3)cc21 [Example N, 3-(2,6-dichlorophenyl)-1-methyl-7-(4-pyridylamino)-1H-[1,6]naphthyridin-2-one] | 5.02 | – | 5.48 | 6.26 | –

Source: patent publication US6150359A, “Naphthyridinones for inhibiting protein tyrosine kinase and cell cycle kinase mediated cellular proliferation” (Warner-Lambert Company, priority 2000, dated 2000)
